Assay results: ChEMBL document CHEMBL3808371, “Design, synthesis and biological evaluation of diaziridinyl quinone isoxazole hybrids” (Eur J Med Chem, 2016)
≈ marks a conversion by molar mass, not a printed value.

Columns and labels:
[1] = test system: Candida albicans; test: Fungicidal activity against Candida albicans MTCC 3018 after 24 hrs by serial dilution method; type: functional; settings: MTCC 3018, 24 h
[2] = test system: Escherichia coli; test: Antimicrobial activity against Escherichia coli MTCC 739 after 24 hrs by well diffusion method; type: functional; settings: MTCC 739, 24 h
[3] = test system: Candida albicans; test: Antimicrobial activity against Candida albicans MTCC 854 after 24 hrs by well diffusion method; type: functional; settings: MTCC 854, 24 h
[4] = test system: Raoultella planticola; test: Antimicrobial activity against Klebsiella planticola MTCC 530 after 24 hrs by well diffusion method; type: functional; settings: MTCC 530, 24 h
[5] = test system: Staphylococcus aureus; test: Antibiofilm activity against Staphylococcus aureus MTCC 96 after 24 hrs by crystal violet staining based assay; type: functional, organism-based; settings: MTCC 96, 24 h
[6] = Cytotoxicity against human PC3 cells after 72 hrs by XTT assay; type: functional, cell-based; settings: PC-3, 72 h
[7] = test system: Candida albicans; test: Fungicidal activity against Candida albicans MTCC 3958 after 24 hrs by serial dilution method; type: functional; settings: MTCC 3958, 24 h
[8] = test system: Candida albicans; test: Fungicidal activity against Candida albicans MTCC 183 after 24 hrs by serial dilution method; type: functional; settings: MTCC 183, 24 h
[9] = test system: [Candida] aaseri; test: Antimicrobial activity against Candida aaseri MTCC 1962 after 24 hrs by well diffusion method; type: functional; settings: Yamadazyma aaseri, MTCC 1962, 24 h
[10] = test system: Candida albicans; test: Antimicrobial activity against Candida albicans MTCC 227 after 24 hrs by well diffusion method; type: functional; settings: MTCC 227, 24 h
[11] = test system: Raoultella planticola; test: Antibiofilm activity against Klebsiella planticola MTCC 530 after 24 hrs by crystal violet staining based assay; type: functional, organism-based; settings: MTCC 530, 24 h
[12] = test system: Pichia kudriavzevii; test: Antimicrobial activity against Candida krusei MTCC 3020 after 24 hrs by well diffusion method; type: functional; settings: MTCC 3020, 24 h
[13] = test system: Staphylococcus aureus; test: Antibiofilm activity against Staphylococcus aureus MLS16 MTCC 2940 after 24 hrs by crystal violet staining based assay; type: functional, organism-based; settings: MLS16 MTCC 2940, 24 h
[14] = test system: [Candida] aaseri; test: Fungicidal activity against Candida aaseri MTCC 1962 after 24 hrs by serial dilution method; type: functional; settings: Yamadazyma aaseri, MTCC 1962, 24 h
[15] = test system: Candida parapsilosis; test: Fungicidal activity against Candida parapsilosis MTCC 1744 after 24 hrs by serial dilution method; type: functional; settings: Lodderomyces parapsilosis, MTCC 1744, 24 h
[16] = test system: Bacillus subtilis; test: Antibiofilm activity against Bacillus subtilis MTCC 121 after 24 hrs by crystal violet staining based assay; type: functional, organism-based; settings: MTCC 121, 24 h
[17] = test system: Pichia kudriavzevii; test: Fungicidal activity against Candida krusei MTCC 3020 after 24 hrs by serial dilution method; type: functional; settings: MTCC 3020, 24 h
[18] = test system: Micrococcus luteus; test: Antimicrobial activity against Micrococcus luteus MTCC 2470 after 24 hrs by well diffusion method; type: functional; settings: MTCC 2470, 24 h
[19] = test system: Candida albicans; test: Fungicidal activity against Candida albicans MTCC 3017 after 24 hrs by serial dilution method; type: functional; settings: MTCC 3017, 24 h
[20] = test system: Candida albicans; test: Fungicidal activity against Candida albicans MTCC 4748 after 24 hrs by serial dilution method; type: functional; settings: MTCC 4748, 24 h
[21] = test system: Candida albicans; test: Fungicidal activity against Candida albicans MTCC 7315 after 24 hrs by serial dilution method; type: functional; settings: MTCC 7315, 24 h
[22] = test system: Nakaseomyces glabratus; test: Fungicidal activity against Candida glabrata MTCC 3019 after 24 hrs by serial dilution method; type: functional; settings: MTCC 3019, 24 h
[23] = test system: Nakaseomyces glabratus; test: Antimicrobial activity against Candida glabrata MTCC 3019 after 24 hrs by well diffusion method; type: functional; settings: MTCC 3019, 24 h
[24] = test system: Candida albicans; test: Antimicrobial activity against Candida albicans MTCC 3018 after 24 hrs by well diffusion method; type: functional; settings: MTCC 3018, 24 h
[25] = test system: Candida albicans; test: Antimicrobial activity against Candida albicans MTCC 7315 after 24 hrs by well diffusion method; type: functional; settings: MTCC 7315, 24 h
[26] = test system: Candida albicans; test: Antimicrobial activity against Candida albicans MTCC 4748 after 24 hrs by well diffusion method; type: functional; settings: MTCC 4748, 24 h
[27] = test system: Raoultella planticola; test: Bactericidal activity against Klebsiella planticola MTCC 530 after 24 hrs by serial dilution method; type: functional; settings: MTCC 530, 24 h
[28] = test system: Candida albicans; test: Fungicidal activity against Candida albicans MTCC 227 after 24 hrs by serial dilution method; type: functional; settings: MTCC 227, 24 h
[29] = test system: A549; test: Cytotoxicity against human A549 cells after 72 hrs by XTT assay; type: functional, cell-based; settings: A549, 72 h
[30] = test system: Candida parapsilosis; test: Antimicrobial activity against Candida parapsilosis MTCC 1744 after 24 hrs by well diffusion method; type: functional; settings: Lodderomyces parapsilosis, MTCC 1744, 24 h
[31] = test system: Candida albicans; test: Fungicidal activity against Candida albicans MTCC 854 after 24 hrs by serial dilution method; type: functional; settings: MTCC 854, 24 h
[32] = test system: Staphylococcus aureus; test: Bactericidal activity against Staphylococcus aureus MTCC 96 after 24 hrs by serial dilution method; type: functional; settings: MTCC 96, 24 h
[33] = test system: Pichia sporocuriosa; test: Antimicrobial activity against Issatchenkia hanoiensis MTCC 4755 after 24 hrs by well diffusion method; type: functional; settings: MTCC 4755, 24 h
[34] = test system: Candida albicans; test: Fungicidal activity against Candida albicans MTCC 1637 after 24 hrs by serial dilution method; type: functional; settings: MTCC 1637, 24 h
[35] = test system: Pichia sporocuriosa; test: Fungicidal activity against Issatchenkia hanoiensis MTCC 4755 after 24 hrs by serial dilution method; type: functional; settings: MTCC 4755, 24 h
[36] = test system: Bacillus subtilis; test: Bactericidal activity against Bacillus subtilis MTCC 121 after 24 hrs by serial dilution method; type: functional; settings: MTCC 121, 24 h
[37] = test system: Staphylococcus aureus; test: Antimicrobial activity against Staphylococcus aureus MLS16 MTCC 2940 after 24 hrs by well diffusion method; type: functional; settings: MLS16 MTCC 2940, 24 h
[38] = test system: Staphylococcus aureus; test: Antimicrobial activity against Staphylococcus aureus MTCC 96 after 24 hrs by well diffusion method; type: functional; settings: MTCC 96, 24 h
[39] = test system: Pseudomonas aeruginosa; test: Antimicrobial activity against Pseudomonas aeruginosa MTCC 2453 after 24 hrs by well diffusion method; type: functional; settings: MTCC 2453, 24 h
[40] = test system: Candida albicans; test: Antimicrobial activity against Candida albicans MTCC 1637 after 24 hrs by well diffusion method; type: functional; settings: MTCC 1637, 24 h
[41] = test system: Staphylococcus aureus; test: Bactericidal activity against Staphylococcus aureus MLS16 MTCC 2940 after 24 hrs by serial dilution method; type: functional; settings: MLS16 MTCC 2940, 24 h
[42] = test system: Bacillus subtilis; test: Antimicrobial activity against Bacillus subtilis MTCC 121 after 24 hrs by well diffusion method; type: functional; settings: MTCC 121, 24 h
[43] = test system: Micrococcus luteus; test: Antibiofilm activity against Micrococcus luteus MTCC 2470 after 24 hrs by crystal violet staining based assay; type: functional, organism-based; settings: MTCC 2470, 24 h
[44] = test system: Candida albicans; test: Antimicrobial activity against Candida albicans MTCC 183 after 24 hrs by well diffusion method; type: functional; settings: MTCC 183, 24 h
[45] = test system: Micrococcus luteus; test: Bactericidal activity against Micrococcus luteus MTCC 2470 after 24 hrs by serial dilution method; type: functional; settings: MTCC 2470, 24 h
[46] = test system: Candida albicans; test: Antimicrobial activity against Candida albicans MTCC 3017 after 24 hrs by well diffusion method; type: functional; settings: MTCC 3017, 24 h
[47] = test system: Candida albicans; test: Antimicrobial activity against Candida albicans MTCC 3958 after 24 hrs by well diffusion method; type: functional; settings: MTCC 3958, 24 h
[48] = test system: A549; test: Selectivity ratio of IC50 for human A549 cells to IC50 for human PC3 cells; type: functional

CCCN(C)C(=O)c1ccc(-c2cc(C3=C(N4CC4)C(=O)C=C(N4CC4)C3=O)no2)s1
MFC [1]: 125 µg/mL (≈ 285 µM)
MIC [2]: > 125 µg/mL
MIC [3]: 62.5 µg/mL (≈ 143 µM)
MIC [4]: 7.8 µg/mL (≈ 17.8 µM)
IC50 [5]: 4.6 µM
IC50 [6]: 0.6 µM
MFC [7]: 125 µg/mL (≈ 285 µM)
MFC [8]: 62.5 µg/mL (≈ 143 µM)
MIC [9]: 7.8 µg/mL (≈ 17.8 µM)
MIC [10]: 62.5 µg/mL (≈ 143 µM)
IC50 [11]: 3.5 µM
MIC [12]: 15.6 µg/mL (≈ 35.6 µM)
IC50 [13]: 10.6 µM
MFC [14]: 15.6 µg/mL (≈ 35.6 µM)
MFC [15]: 31.2 µg/mL (≈ 71.2 µM)
IC50 [16]: 2.2 µM
MFC [17]: 31.2 µg/mL (≈ 71.2 µM)
MIC [18]: 15.6 µg/mL (≈ 35.6 µM)
MFC [19]: 31.2 µg/mL (≈ 71.2 µM)
MFC [20]: 62.5 µg/mL (≈ 143 µM)
MFC [21]: 31.2 µg/mL (≈ 71.2 µM)
MFC [22]: 31.2 µg/mL (≈ 71.2 µM)
MIC [23]: 15.6 µg/mL (≈ 35.6 µM)
MIC [24]: 31.2 µg/mL (≈ 71.2 µM)
MIC [25]: 15.6 µg/mL (≈ 35.6 µM)
MIC [26]: 31.2 µg/mL (≈ 71.2 µM)
MBC [27]: 15.6 µg/mL (≈ 35.6 µM)
MFC [28]: 125 µg/mL (≈ 285 µM)
IC50 [29]: 2.7 µM
MIC [30]: 15.6 µg/mL (≈ 35.6 µM)
MFC [31]: 125 µg/mL (≈ 285 µM)
MBC [32]: 15.6 µg/mL (≈ 35.6 µM)
MIC [33]: 15.6 µg/mL (≈ 35.6 µM)
MFC [34]: 125 µg/mL (≈ 285 µM)
MFC [35]: 62.5 µg/mL (≈ 143 µM)
MBC [36]: 7.8 µg/mL (≈ 17.8 µM)
MIC [37]: 15.6 µg/mL (≈ 35.6 µM)
MIC [38]: 7.8 µg/mL (≈ 17.8 µM)
MIC [39]: > 125 µg/mL
MIC [40]: 62.5 µg/mL (≈ 143 µM)
MBC [41]: 31.2 µg/mL (≈ 71.2 µM)
MIC [42]: 3.9 µg/mL (≈ 8.89 µM)
IC50 [43]: 8.9 µM
MIC [44]: 31.2 µg/mL (≈ 71.2 µM)
MBC [45]: 31.2 µg/mL (≈ 71.2 µM)
MIC [46]: 7.8 µg/mL (≈ 17.8 µM)
MIC [47]: 62.5 µg/mL (≈ 143 µM)

CN(Cc1ccc(F)cc1)C(=O)c1ccc(-c2cc(C3=C(N4CC4)C(=O)C=C(N4CC4)C3=O)no2)s1
MIC [2]: > 125 µg/mL
MIC [4]: > 125 µg/mL
Ratio IC50 [48]: 30
IC50 [6]: 0.5 µM
MIC [18]: 31.2 µg/mL (≈ 61.8 µM)
MBC [27]: > 125 µg/mL
IC50 [29]: 15.3 µM
MBC [32]: > 125 µg/mL
MBC [36]: 62.5 µg/mL (≈ 124 µM)
MIC [37]: 31.2 µg/mL (≈ 61.8 µM)
MIC [38]: 62.5 µg/mL (≈ 124 µM)
MIC [39]: > 125 µg/mL
MBC [41]: > 125 µg/mL
MIC [42]: 15.6 µg/mL (≈ 30.9 µM)
MBC [45]: > 125 µg/mL
MIC [46]: > 125 µg/mL
